Marks after values point to notes of the source that are not given here.
settings: 1H NMR method, preliminary account in the Magritek laboratory manual; cited from earlier work

Compound | log KOW (ref ([14]))
CC#N [acetonitrile] | –0.51
C1CCOC1 [tetrahydrofuran] | 0.43
CC(C)=O [acetone] | –0.23

format: physicochemical; settings: 20–21 °C, corrected for phase volume ratio and for OH

Compound | log KOW (eq 5b), corrected for OH
CO [methanol] | −0.71 ^c

same assay, conditions: 20–21 °C, corrected for phase volume ratio vO/vW

Compound | log KOW (eq 5b)
CC#N [acetonitrile] | –0.28
CC(C)CO [2-methylpropanol-1] | 0.89
CCOC(C)=O [ethyl acetate] | 0.88
C1CCOC1 [tetrahydrofuran] | 0.44
C1COCCO1 [1,4-dioxane] | –0.31
CO [methanol] | –0.75
C[S+](C)[O-] [dimethyl sulfoxide] | –1.87
CC(C)=O [acetone] | –0.24
CN(C)C=O [dimethylformamide] | –1.03
CCC(C)O (stereo not shown) [2-butanol] | 0.65
CCC(C)=O [butanone] | 0.33
COC(C)=O [methyl acetate] | 0.19

same assay, conditions: 20–21 °C, n = 5, equal phase volumes assumed, corrected for OH

Compound | log KOW ± SD (eq 4, this work), corrected for OH
CO [methanol] | –0.72 ^c ± 0.016 (n = 5)

same assay, conditions: increase of log KOW

Compound | correction of log KOW for alcohol OH protons
CO [methanol] | 0.04

same assay, conditions: single measurement, eq 4

Compound | KOW | log KOW
CC(C)=O [acetone] | 0.589 | −0.23

same assay, conditions: zwitterions

Compound | migration from water to octanol (log KOW could not be measured)
NCC(=O)O [glycine] | did not migrate to any detectable extent
C[C@H](N)C(=O)O [alanine] | did not migrate to any detectable extent

settings: cited from earlier work

Compound | literature log KOW (ref ([9])) | literature log KOW
CC#N [acetonitrile] | –0.34 | –
CC(C)CO [2-methylpropanol-1] | 0.76 | –
CCOC(C)=O [ethyl acetate] | 0.73 | –
C1CCOC1 [tetrahydrofuran] | 0.46 | –
C1COCCO1 [1,4-dioxane] | –0.27 | –
CO [methanol] | –0.77 | –
C[S+](C)[O-] [dimethyl sulfoxide] | –1.35 | −2.03 (ref ([1]))
CC(C)=O [acetone] | –0.24 | –
CCC(C)O (stereo not shown) [2-butanol] | 0.61 | –
CCC(C)=O [butanone] | 0.29 | –
COC(C)=O [methyl acetate] | 0.18 | –

Source: PMC6644330 (ACS Omega, 2017)
